Measurements reported in PubChem BioAssay (NCI).
Several values for one entry are separate records, joined by “and”; a condition that tells them apart may be missing. Equal values may be shown once.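 Values below derive from 48-hour exposures of cells grown in 96-well plates, with endpoints linearly interpolated between the two concentrations bracketing the appropriate inhibition level. GI50 marks 50% less growth. TGI is the concentration that stops growth completely.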

Key:
Experiment in all cases: inhibition of tumour cell growth, NCI panel, 48 h
ACHN renal = tested on: ACHN renal
CCRF-CEM leukemia = tested on: CCRF-CEM leukemia
MCF7 breast = tested on: MCF7 breast
MOLT-4 leukemia = tested on: MOLT-4 leukemia
OVCAR-4 ovarian = tested on: OVCAR-4 ovarian
RXF 393 renal = tested on: RXF 393 renal
SF-539 CNS = tested on: SF-539 CNS
SK-MEL-5 melanoma = tested on: SK-MEL-5 melanoma
SR leukemia = tested on: SR leukemia
UACC-257 melanoma = tested on: UACC-257 melanoma

Compound | GI50 (ACHN renal) | TGI (ACHN renal) [µM] | GI50 (CCRF-CEM leukemia) | TGI (CCRF-CEM leukemia) [µM] | GI50 (MCF7 breast) | TGI (MCF7 breast) [µM] | GI50 (MOLT-4 leukemia) | TGI (MOLT-4 leukemia) [µM] | GI50 (OVCAR-4 ovarian) | TGI (OVCAR-4 ovarian) [µM] | GI50 (RXF 393 renal) | TGI (RXF 393 renal) | GI50 (SF-539 CNS) | TGI (SF-539 CNS) | GI50 (SK-MEL-5 melanoma) | TGI (SK-MEL-5 melanoma) | GI50 (SR leukemia) | TGI (SR leukemia) [µM] | GI50 (UACC-257 melanoma) | TGI (UACC-257 melanoma) [µM]
CC(C)[C@@](O)(c1ccc2cc(OC(F)F)c(OC(F)F)cc2c1)c1cn[nH]n1 | 22.6 µM | 83.2 | 19.2 µM | 55.3 | 16.6 µM | 37.7 | 21.7 µM | 70.7 | 17.1 µM | 86 | 15.4 µM | 29.8 µM | 16.4 µM | 32.3 µM | 14.4 µM | 27.5 µM | 17.3 µM | 44.7 | 22.8 µM | 48.5
Cn1cc(C2=C(c3cn(-c4ccccc4)c4ccccc34)C(=O)NC2=O)c2ccccc21 | 17.3 µM | > 25 | 15.2 µM | > 25 | 9.3 µM | > 25 | 9.59 µM | > 25 | 10.4 µM | > 25 | 10.2 µM | > 25 µM | > 25 µM | > 25 µM | 10.8 µM | > 25 µM | 9.37 µM | > 25 | > 25 µM | > 25
O=C(C=P(c1ccccc1)(c1ccccc1)c1ccccc1)CCl | 0.569 µM | 1.94 | 0.826 µM | 7.41 | 0.403 µM | 1.93 | 1.59 µM | 6.85 | 0.488 µM | 2.2 | 1.01 µM | 2.41 µM | 1.28 µM | 2.98 µM | 1.45 µM | 2.83 µM | 0.38 µM | 10.5 | 1.14 µM | 2.59
NC(=S)N/N=C1\c2ccccc2-c2c(F)c(F)c(F)c(F)c21 | 2.11 µM | 4.38 | 1.09 µM | 3.95 | 2.39 µM | 14.3 | 1.8 µM | 5.31 | 1.65 µM | 3.52 | 2.07 µM | 3.85 µM | 5.39 µM | 12.8 µM | 17.1 µM | > 50.4 µM | 0.298 µM | 1.86 | 2.93 µM | 9.38
Cn1c(=O)nc2n(-c3ccc(Cl)cc3)c3cc(Cl)ccc3nc-2c1=O |  | 25.5 |  | 33.2 |  | 2.8 |  | 16.5 |  | 2.53 |  | 9.25 µM |  | 30.4 µM |  | 3.07 µM |  | 29.8 |  | 3.51
Cn1c2c(c3ccccc31)CCN(CCCCN1CCN(c3ccccc3)CC1)C2=O |  | > 100 |  | > 79.9 |  | 63.2 |  | > 78 |  | > 100 |  | 76.4 µM |  | > 100 µM |  | 22.9 µM |  | > 100 |  | 26.6
CC(C)(C)CC(C)(C)c1ccc(O)c(Cc2ccc(Cl)cc2Cl)c1 | 1.68 µM | 3.05 | 1.53 µM | 3.19 | 1.52 µM | 2.85 | 1.66 µM | 3.44 | 1.59 µM | 2.93 | 1.16 µM | 2.41 µM | 1.84 µM | 3.36 µM | 1.6 µM | 2.95 µM | 1.79 µM | 4.22 | 1.51 µM | 2.86
O=c1cnnc(N/N=C/c2ccccc2O)[nH]1 | 1.19 µM | > 100 | 0.396 µM | > 39.9 | 0.0396 µM |  | 0.973 µM | > 100 | 0.264 µM | > 23.8 | 5.16 µM | 37.7 µM | 3.2 µM | > 100 µM | 1.25 µM | > 39.6 µM | 1.51 µM | > 100 | 0.489 µM | 6.8
CC1(C)N=C(N)N=C(N)N1c1ccc(Cl)cc1 | 9.55 µM | > 100 | > 100 µM | > 100 | 4.88 µM | > 100 | 62.3 µM | > 100 | 14.9 µM | > 100 | 8.09 µM | > 100 µM | 1.94 µM | > 100 µM | 3.99 µM | > 100 µM | 20.5 µM | > 100 | 75 µM | > 100
C=C1C(=O)O[C@H]2[C@H](OC(C)=O)[C@@H](C)CCCC3(C)OC3CCC3(CO3)[C@H](O)C[C@@H]12 (stereo partly specified) | 10.4 µM | 22.3 | 2.44 µM | 7.27 | 5.02 µM | 28.7 | 1.73 µM | 4.14 | 3.77 µM | 53.8 | 12.4 µM | > 100 µM | 15.4 µM | 37.1 µM | 11.9 µM | 24.9 µM | 0.568 µM | 2.26 | 17.3 µM | 49.9
COC(=O)c1cc2oc(/C=C3/SC(=S)N(N)C3=O)cc2n1Cc1ccccc1 | 7.08 µM | 25.8 | > 100 µM | > 100 | 1.5 µM | 6.93 | 4.23 µM | > 100 | 4.68 µM | 42.8 | 2.01 µM | 12.2 µM | 2.3 µM | 6.3 µM | 1.99 µM | 7.03 µM | > 21.4 µM | > 100 | 4.39 µM | 21.5
CCc1cnn2c(NCc3ccc[n+]([O-])c3)cc(N3CCCC[C@H]3CCO)nc12 | < 0.0155 µM and 0.0132 µM | > 10 | < 0.01 µM and 0.00331 µM |  | < 0.01 µM and 0.00221 µM | > 100 | < 0.01 µM and 0.00393 µM | < 0.0136 | < 0.0105 µM and 0.00798 µM |  | < 0.01 µM and 0.00188 µM | < 0.01 µM and 0.00446 µM | < 0.01 µM and 0.00228 µM | < 0.0116 µM and 0.00756 µM | < 0.01 µM and 0.00469 µM | 0.0237 µM and 0.207 µM | < 0.01 µM and 0.0016 µM | < 0.01 | < 0.0135 µM and 0.0074 µM | 
CC(C)(c1ccccc1)c1cc(O)c(C(C)(C)c2ccccc2)cc1O | 2.7 µM | 12.2 | 3 µM | 13.6 | 2.1 µM | 11.2 | 1.72 µM | 7.82 | 1.26 µM | 9.92 | 1.83 µM | 6.85 µM | 2.73 µM | 9.59 µM | 1.02 µM | 2.65 µM | 3 µM | 9.86 | 2.1 µM | 10.7
COc1ccc(C2CC(c3ccc(Nc4ccnc5cc(Cl)ccc45)cc3)=NN2C=O)cc1 (stereo unspecified) | 7.02 µM | > 100 | 2.71 µM | > 100 | 8.78 µM | > 100 | 2.55 µM | 16.7 | 13.4 µM | > 100 | 11.6 µM | > 100 µM | > 100 µM | > 100 µM | 0.617 µM | 43.2 µM | 2.83 µM | 6.64 | 43.9 µM | > 100
Cc1ccc(C=C2C(Cl)=C(Cl)C(Cl)=C2Cl)cc1 | 0.7 µM | 1.94 | 0.167 µM | 0.49 | 0.39 µM | 2.37 | 0.186 µM | 0.493 | 1 µM | 2.75 | 0.308 µM | 0.906 µM | 1.45 µM | 2.81 µM | 1.09 µM | 2.41 µM | 0.166 µM | 0.444 | 1.58 µM | 4.32
C#Cc1cccc(Nc2ncnc3ccc(OCCCCNCCS(C)(=O)=O)cc23)c1 | 0.945 µM | > 25 | 7.65 µM | > 25 | 9.5 µM | > 25 | 7.97 µM | 21.4 | 9.55 µM | > 25 | 5.32 µM | > 22.6 µM | 4.49 µM | 8.72 µM | 4.26 µM | 8.63 µM | 6.55 µM | 15.3 | 4.39 µM | 8.38
CC1(C)N=C(N)N=C(N)N1c1ccc(OCCCNC(=O)Nc2cccc(S(=O)(=O)F)c2)c(Cl)c1 | 15.7 µM | > 100 | 3.62 µM | > 100 | 3.82 µM | > 100 | 3.26 µM | > 100 | > 100 µM | > 100 | 22.2 µM | > 100 µM | 4.78 µM | > 100 µM | 0.715 µM | > 100 µM | 0.637 µM | > 100 | > 100 µM | > 100
COc1c(/C=C/C=O)cc2c(c1OC)OCO2 |  | > 100 |  | > 100 |  | > 100 |  | 49.6 |  | 85.6 |  | > 100 µM |  | > 100 µM |  | 50.3 µM |  | 64.8 |  | > 100
COC1=C(C)C(=O)c2c(c(CCCl)c3n2CCC3OC(C)=O)C1=O (stereo unspecified) | 0.142 µM | 0.417 | 3.33 µM | > 95.8 | 0.071 µM | 1.85 | 4.11 µM | > 100 | 7.18 µM | 38.6 | 0.167 µM | 0.39 µM | 0.157 µM | 0.545 µM | 0.0849 µM | 0.228 µM | 0.155 µM | > 32.5 | 0.227 µM | 0.733
CN(C)CC(=O)Nc1ccc2ncnc(Nc3ccc(Oc4cccc(C(F)(F)F)c4)c(Cl)c3)c2c1 | 1.13 µM | 2.49 | 2.52 µM | 10.4 | 1.53 µM | 3.02 | 2.14 µM | 6.36 | 1.96 µM | 5.83 | 1.61 µM | 3.25 µM | 1.73 µM | 3.18 µM | 1.69 µM | 3.09 µM | 2.46 µM | 9.15 | 2.05 µM | 4.25
